Values joined by “and” are separate entries in the source; they are usually repeats but may differ in a detail not shown here. Identical values can stand only once.
B1: E06-scFv: single chain variable antibody fragment of E06 (heavy and light variable regions joined by 15-amino acid linker), expressed in transgenic mice (protein)
scFv: DAAQPARRAVRSLDIVMTQSPSSLSVSAGKKVTISCTASESLYSSKHKVHYLAWYQKKPEQSPKLLIYGASNRYIGVPDRFTGSGSGTDFTLTISSVQVEDLTHYYCAQFYSYPLTFGAGTKLEIKGGGGSGGGGSGGGGSEVKLVESGGGLVQPGGSLRLSCATSGFTFSDFYMEWVRQAPGKRLEWIAASRNKANDYTTEYADSVKGRFIVSRDTSQSILYLQMNALRAEDTAIYYCARDYYGSSYWYFDVWGAGTTVTVSSRGGPEQKLISEEDLNSAVD

Legend:
[1] = system: neonatal rat cardiomyocytes (NNCM); experiment: Neutralization of OxPL by E06: OxPL-induced cardiomyocyte cell death with E06 co-treatment; assay type: cell-based; details: 5 μM lipid alone, 2 hrs
Source text: Cell culture of rat cardiomyocytes. All animal experiments performed conform to the NIH guidelines regarding animal experimentation. Neonatal rat cardiomyocytes (NNCM) were isolated from 1-2 day old Sprague-Dawley rat pups. Whole hearts were excised from rat pups by midline sternotomy after cervical dislocation. Hearts were washed and minced to adequately break up macroscopic structures before re-washing with cold filter sterilized phosphate buffered saline (PBS) containing 10 g/L of glucose to remove red blood cells and debris. Repeated enzymatic digestion of heart fragments was performed with collagenase (740U), trypsin (370U), and DNase (2880U) (Worthington Biochemical) agitating at 35° C. for three 10-minute and three 7-minute digestions. Digested supernatant solutions were centrifuged into a cell pellet and then separation of cell types using a Percoll® (GE Healthcare) gradient of 1.05, 1.06, and 1.082 g/mL allowed for a layer enriched with myocytes to be isolated. To remove fibroblasts, the cells were pre-plated on non-coated 150 mm culture plates for 45 min. Purified NNCM (95% pure by sarcomere staining) were then transferred to sterile tissue culture plates at a cell density of 1.75×10^6/35-mm plate. Collagen-coated glass coverslips in 24-well tissue culture plates were used for microscopy analysis and NNCM were plated at 3.2×10^5/well. […]
In vitro OxPC treatment and assessment of cell viability. […] Plates were then washed with PBS before NNCM were analyzed for cell viability using vital dyes, calcein-acetoxymethyl ester (AM) and ethidium homodimer-1 (Invitrogen). Mitochondrial permeability after exposure to OxPL molecules was monitored by fluorescence microscopy using a solution of calcein-AM fluorescent dye with cobalt chloride (CoCl2) applied to cardiomyocytes cultured on glass coverslips.
To evaluate the effect of neutralizing OxPL on cell viability, the IgM E06 antibody was used at a concentration of 10 μg/mL within cell culture. […] Cell viability was assessed as described above. […] Images were assessed using Adobe Photoshop CS5.1 Software.

[2] = system: neonatal rat cardiomyocytes (NNCM); experiment: In vitro OxPC treatment and assessment of cell viability (calcein-AM / ethidium homodimer-1); assay type: cell-based; details: 4 hours
Source text: Cell culture of rat cardiomyocytes. All animal experiments performed conform to the NIH guidelines regarding animal experimentation. Neonatal rat cardiomyocytes (NNCM) were isolated from 1-2 day old Sprague-Dawley rat pups. Whole hearts were excised from rat pups by midline sternotomy after cervical dislocation. Hearts were washed and minced to adequately break up macroscopic structures before re-washing with cold filter sterilized phosphate buffered saline (PBS) containing 10 g/L of glucose to remove red blood cells and debris. Repeated enzymatic digestion of heart fragments was performed with collagenase (740U), trypsin (370U), and DNase (2880U) (Worthington Biochemical) agitating at 35° C. for three 10-minute and three 7-minute digestions. Digested supernatant solutions were centrifuged into a cell pellet and then separation of cell types using a Percoll® (GE Healthcare) gradient of 1.05, 1.06, and 1.082 g/mL allowed for a layer enriched with myocytes to be isolated. To remove fibroblasts, the cells were pre-plated on non-coated 150 mm culture plates for 45 min. Purified NNCM (95% pure by sarcomere staining) were then transferred to sterile tissue culture plates at a cell density of 1.75×10^6/35-mm plate. Collagen-coated glass coverslips in 24-well tissue culture plates were used for microscopy analysis and NNCM were plated at 3.2×10^5/well. Cells were incubated overnight in Dulbecco's Modified Eagle Medium/Ham's nutrient mixture F-12 (1:1) containing 2 mM glutamine, 3 mM NaHCO3, 15 mM HEPES, and […] gentamycin (DMEM/F12) plus 10% fetal bovine serum (FBS). DMEM/F12 with 10% FBS was changed to serum-free DMEM/F12 (DFSF) the following day. Control solution consisted of 140 mM NaCl, 6 mM KCl, 1.25 mM CaCl2, 6 mM HEPES, and 10 mM D-glucose buffered to pH 7.4, ischemic solution was buffered to pH 6.0, and consisted of the same components, except 8 mM KCl was added and no D-glucose was added. The ischemic buffer was purged of oxygen by bubbling 95% N2 and 5% CO2 gas into the medium for 1 hour before being applied to cells. A hypoxic chamber designed for storage in a 37° C. water jacketed tissue culture incubator was used to maintain an atmosphere of 95% N2 and 5% CO2 gas conditions for 18 hours overnight. Reperfusion was achieved by applying control buffer to cells for 4 hours in a normal culture incubator. After the treatment, cells were scraped off into a small portion of PBS. Cardiomyocyte cell lysates were subjected to Western Blot analysis.
In vitro OxPC treatment and assessment of cell viability. Fresh DFSF was applied to NNCM on glass cover-slips and supplemented with 1, 2, 5, and 10 μM concentrations of OxPL lipids sonicated into PBS, forming micelles. Four OxPL species, POVPC, PONPC, PGPC, and PAzPC were applied to NNCM plates for 4 hours and compared to a non-oxidized PC standard PSPC. Plates were then washed with PBS before NNCM were analyzed for cell viability using vital dyes, calcein-acetoxymethyl ester (AM) and ethidium homodimer-1 (Invitrogen). Mitochondrial permeability after exposure to OxPL molecules was monitored by fluorescence microscopy using a solution of calcein-AM fluorescent dye with cobalt chloride (CoCl2) applied to cardiomyocytes cultured on glass coverslips.

[3] = system: E06-scFv-Tg/Ldlr−/− mice; experiment: Myocardial ischemia-reperfusion (LAD ligation), histologic infarct size in E06-scFv-Tg/Ldlr−/− mice; assay type: in vivo, mouse
Source text: (§1) Generation and characterization of E06-scFv transgenic mice. The generation of transgenic C57BL/6 mice expressing the T15/E06 idiotype as a single chain variable antibody fragment—termed E06-scFv-Tg. In brief, the cDNAs encoding E06 variable regions of the heavy and light chains were linked with a 15-amino acid peptide by overlapping PCR, and cloned into an expression vector pSecTag2A (Invitrogen) containing a murine Ig kappa-chain leader sequence for secretion and c-myc and polyHis as epitope tags. […] The same construct was then cloned into the liver-specific expression vector pLiv7 and used to generate transgenic (Tg) mice in the C57BL/6 background expressing the E06-scFv transgene driven by the apoE promoter. Offspring were screened both for plasma E06-scFv titer and integration of the transgene by PCR amplification of the tail DNA. The transgenic E06-scFv founder lines were bred with each other to generate “homozygous” transgenic mice, and in turn, these were crossed into Ldl^−/− mice on the C57BL/6 background. All animals were genotyped for E06-scFv and Ldlr^−/−, respectively and plasma assayed to confirm expression of the E06-scFv by immunoassay. The E06-scFv mRNA was strongly expressed in liver, peritoneal macrophages and spleen, and to a lesser extent in heart. Plasma levels of the E06-scFv averaged 20-30 μg/ml in these studies.
Adult (18-20-week-old) E06-scFv-Tg/Ldlr^−/− mice or Ldlr^−/− mice weighing 16-40 grams, were anesthetized with a mixture of Ketamine (50 mg/kg) and Xylazine (5 mg/kg) and 1.0% isoflurane. Mice were intubated with a pressure ventilator (Kent Scientific, PhysioSuite. Peak inspiration pressure was ˜13 cm H2O and inspiration rate 100-110. The skin over the mid thorax was shaved and cleansed with Betadine or Chlorhexidine solution. A skin incision was made from the midsternal line toward the left armpit, and the chest opened with a 1 cm lateral cut along the left side of the sternum, cutting between the 3rd and 4th ribs to expose the left ventricle of the heart. The ascending aorta and main pulmonary artery were identified; the left anterior descending (LAD) coronary artery was located as it traverses the anterior wall of the heart, between the left and right ventricles. LAD coronary artery occlusion was performed by tying an 8-0 prolene suture ligature on a piece of 2-0 silk suture. Occlusion of the artery was assessed by blanching of the territory of perfusion of the LAD coronary artery, along with acute ST segment elevation on limb-lead electrocardiographic leads. Following an ischemic period of 60 minutes, the suture was removed from around the LAD coronary artery. […]
Histologic assessment of infarct size. […] The sizes of AAR and infarct area (IA) were quantified by computerized planimetry using ImageJ. […]

[4] = Plasma levels of E06-scFv in transgenic mice (immunoassay); assay type: in vivo, mouse; details: transgenic mice constitutively expressing E06-scFv (apoE promoter)
Source text: as §1

[5] = Binding properties of E06-scFv secreted into HEK293 culture supernatant; details: E06-scFv in HEK293 culture supernatant
Source text: as §1

[6] = E06-scFv-Tg/Ldlr−/− mice, 7 days after 60 minutes LAD ischemia and reperfusion
[7] = E06-scFv-Tg/Ldlr−/− vs Ldlr−/− mice, 7 days after IR

Molecule | cell death without E06 [1] [%] | cell death ([2]; 1 μM lipid) [%] | cell death ([2]; 2 μM lipid) [%] | cell death ([2]; 5 μM lipid) [%] | cell death ([2]; 10 μM lipid) [%] | IA/AAR (infarct area as percentage of area at risk) [3, 6] [%] | IA/LV (infarct area as percentage of left ventricle) [3, 6] [%] | smaller IA/AAR compared to Ldlr−/− mice [3, 7] [%] | smaller IA/LV compared to Ldlr−/− mice [3, 7] | plasma levels of E06-scFv [4] [ng/mL] | binding properties compared with intact E06 [5]
CCCCCCCCCCCCCCCC(=O)OC[C@H](COP(=O)([O-])OCC[N+](C)(C)C)OC(=O)CCCCCCCC=O [PONPC, 1-palmitoyl-2-(9-oxo)nonanoyl-sn-glycero-3-phosphocholine] | 25.3±3.4 | 28.3±8.9 | 42.0±6.2 | 70.0±18.6 | – | – | – | – | – | – | –
CCCCCCCCCCCCCCCC(=O)OC[C@H](COP(=O)([O-])OCC[N+](C)(C)C)OC(=O)CCCC=O [POVPC, 1-palmitoyl-2-(5-oxovaleroyl)-sn-glycero-3-phosphocholine] | 22.6±4.14 | – | – | – | 68.6±14.8 | – | – | – | – | – | –
CCCCCCCCCCCCCCCCCC(=O)O[C@H](COC(=O)CCCCCCCCCCCCCCC)COP(=O)([O-])OCC[N+](C)(C)C [PSPC] | 6.2±1.6 | 7.6±5.1 | 9.1±10.5 | 10.5±1.6 | 5.5±1.6 | – | – | – | – | – | –
B1 | – | – | – | – | – | 47.7±17.6 | 16.3±7.5 | 65.9 | 58.8% and 58.5% | 20000 to 30000 | mimic those of the intact E06

Reference: patent US11897969B2, “Inhibition of oxidation-specific epitopes to treat ischemic reperfusion injury” (The Regents of the University of California, priority 2017, dated 2024)
